# Where “and” joins values, the source holds several entries; their conditions need not be identical. Equal values may be shown once.
# How the values were obtained:
# [1] = test system: A549 cells; assay: MTT detection method, inhibitory effect against A549 cells; type: cell-based; conditions: 5000 cells/well, treatment 48 h; for The mean inhibitory ratio (%): mean of three; for The inhibitory ratio (%) for three parallel assays: single parallel assays
# Text: (§1) MTT detection method was used, and MTT is a yellow compound and a dye accepting hydrogen ions, and can be used as the respiratory chain in mitochondria of viable cells. Under the action of succinate dehydrogenase and cytochrome C, the tetrazolium ring broke to form blue formanzan crystal, and the formation amount of formanzan crystal was only directly proportional to the viable counts. The formanzan crystal formed by reduction can dissolve in dimethyl sulfoxide (DMSO), and the optical density (OD) value can be determined at 490 nm using ELISA, to reflect the viable counts.
# (§2) Lung cancer cell lines: A549 and H1299.
# (§3) Experimental materials: lung cancer cell lines, instruments and tools for cell culture, MTT, and the compound mother liquid (10 mmol/L).
# (§4) (3-1) Cell lines A549 and H1299 were recovered, and when the cells were in good conditions, namely cells grew to about 80% after one passage (i.e. the logarithmic growth phase), the cells were planked (96-well plate).
# (§5) (3-2) Firstly, cells were collected, and the concentration of cell suspension was adjusted with counting chamber. Cells were seeded in 96-well plate at 1000-10000 cells/well, and the detailed cell numbers in each well were dependent on the growth rate of different cells and the action time of drugs. A549 cells were seeded at 5000 cells, while H1299 cells were also seeded at 5000 cells, 200 μl for each well (100 μl cell suspension+100 μl drug dilution at different concentration gradient). The edge wells (36) were added 200 μl culture media (for prevention of edge effect).
# (§6) (3-3) After planking and adding drugs, the plate was treated at 24 h, 48 h, and 72 h, and then for coloration, each well was added 200 μl culture media containing 20 μl MTT solution (5 mg/mL). The plate was continually cultured for 1-4 hours, and the culture supernatant fluid in each well was carefully absorbed. For suspension cells, the culture supernatant fluid in each well need be centrifuged before drawing. 150 μl DMSO was added to each well, and the plate was shaken on a shaking table for 15-20 min, to allow the crystals to be completely dissolved.
# (§7) (3-4) Colorimetry: The colorimetry was performed by ELISA, and the optical absorption value of each well was tested at a wavelength of 490 nm or 570 nm, and the result was recorded.
# (§8) (3-5) Calculation Inhibition ratio=(the control−the drug)/the control×100%
# (§9) IC50 (50% inhibitory concentration) can be calculated by spass software based on the inhibitory ratio at different concentration.
# [2] = test system: H1299 cells; assay: MTT detection method, inhibitory effect against H1299 cells; type: cell-based; conditions: 5000 cells/well, treatment 48 h; for The mean inhibitory ratio (%): mean of three; for The inhibitory ratio (%) for three parallel assays: single parallel assays
# Text: as §1, §2, §3, §4, §5, §6, §7, §8, §9
smiles,measurement,setting,value
"Nc1nc2cccc(-c3ccc(CN4CCOCC4)cc3)n2n1 [Compound 1, 2-amino-5-[4-(4-morpholinylmethyl)phenyl]-[1,2,4]triazolo[1,5-a]pyridine]",The mean inhibitory ratio (%),[1]; 25 μm,10%
same,The inhibitory ratio (%) for three parallel assays,[1]; 25 μm,10% and 9%
same,The mean inhibitory ratio (%),[1]; 50 μm,29%
same,The inhibitory ratio (%) for three parallel assays,[1]; 50 μm,28% and 31% and 29%
same,The mean inhibitory ratio (%),[1]; 100 μm,31%
same,The inhibitory ratio (%) for three parallel assays,[1]; 100 μm,31% and 30%
same,The mean inhibitory ratio (%),[2]; 25 μm,62%
same,The inhibitory ratio (%) for three parallel assays,[2]; 25 μm,63% and 61%
same,The mean inhibitory ratio (%),[2]; 50 μm,95%
same,The inhibitory ratio (%) for three parallel assays,[2]; 50 μm,93% and 94% and 97%
same,The mean inhibitory ratio (%),[2]; 100 μm,85%
same,The inhibitory ratio (%) for three parallel assays,[2]; 100 μm,86% and 84%
"Ic1nc2cccc(-c3ccc(CN4CCOCC4)cc3)n2n1 [Compound 2, 2-iodo-5-[4-(4-morpholinylmethyl)phenyl]-[1,2,4]triazolo[1,5-a]pyridine]",The mean inhibitory ratio (%),[1]; 25 μm,27%
same,The inhibitory ratio (%) for three parallel assays,[1]; 25 μm,26% and 25% and 30%
same,The mean inhibitory ratio (%),[1]; 40 μm,22%
same,The inhibitory ratio (%) for three parallel assays,[1]; 40 μm,21% and 22%
same,The mean inhibitory ratio (%),[1]; 50 μm,24%
same,The inhibitory ratio (%) for three parallel assays,[1]; 50 μm,23% and 27%
same,The mean inhibitory ratio (%),[2]; 50 μm,31%
same,The inhibitory ratio (%) for three parallel assays,[2]; 50 μm,32% and 31% and 29%
same,The mean inhibitory ratio (%),[2]; 80 μm,33%
same,The inhibitory ratio (%) for three parallel assays,[2]; 80 μm,33% and 32%
same,The mean inhibitory ratio (%),[2]; 100 μm,31%
same,The inhibitory ratio (%) for three parallel assays,[2]; 100 μm,32% and 29%
"N#Cc1nc2cccc(-c3ccc(CN4CCOCC4)cc3)n2n1 [Compound 3, 2-cyano-5-[4-(4-morpholinylmethyl)phenyl]-[1,2,4]triazolo[1,5-a]pyridine]",The mean inhibitory ratio (%),[1]; 25 μm,22%
same,The inhibitory ratio (%) for three parallel assays,[1]; 25 μm,20% and 26%
same,The mean inhibitory ratio (%),[1]; 40 μm,22%
same,The inhibitory ratio (%) for three parallel assays,[1]; 40 μm,22% and 24% and 20%
same,The mean inhibitory ratio (%),[1]; 50 μm,25%
same,The inhibitory ratio (%) for three parallel assays,[1]; 50 μm,24% and 27%
same,The mean inhibitory ratio (%),[2]; 50 μm,32%
same,The inhibitory ratio (%) for three parallel assays,[2]; 50 μm,33% and 32%
same,The mean inhibitory ratio (%),[2]; 80 μm,32%
same,The inhibitory ratio (%) for three parallel assays,[2]; 80 μm,32%
same,The mean inhibitory ratio (%),[2]; 100 μm,34%
same,The inhibitory ratio (%) for three parallel assays,[2]; 100 μm,33% and 34% and 35%
